Laboratory results from US11464770B2, “Anticancer pharmaceutical composition” (NATIONAL CANCER CENTER, priority 2016, dated 2022).
Entries after “also recorded” stand apart in the source; their conditions may differ.

Legend:
[1] = IV and IP single toxicity test in mice; type: in vivo; details: for Percentage (dead subjects), single toxicity evaluation: Mouse
zebrafish = assay: Cardiotoxicity experiment using zebrafish (heart rate, lethality); type: in vivo; details: 5 uM, n = 10
[2] = system: UM-UC-3: human urinary bladder transitional cell carcinoma; assay: Cell based assay, cytotoxicity in UM-UC-3 cells; details: UMUC3, 72 hours
Experimental: (§1) Commercially available bladder cancer, prostate cancer, lung cancer, breast cancer, blood cancer, pancreatic cancer, colorectal cancer, brain cancer, neuroblastoma, melanoma, liver cancer, cervical carcinoma, ovarian cancer, renal cancer, and papilloma cell lines were each treated with trypsin-EDTA and cultured, followed by being seeded in each well of a 96 well plate. After 24 hours of treatment at constant temperature, the respective cells were treated with the candidate compound so that a final concentration became 0 to 2 μM. The treated cells were additionally cultured for 72 hours, and cell viability was measured by using an ATP detection method (CellTiter-Glo® Luminescent Cell Viability Assay, Promega).

[3] = system: KU-19-19: Bladder carcinoma; assay: Cell based assay, cytotoxicity in KU19-19 cells; details: Homo sapiens, 72 hours
Experimental: as §1

[4] = system: MBT-2: Mouse bladder transitional cell carcinoma; assay: Cell based assay, cytotoxicity in MBT-2 cells; details: 72 hours
Experimental: as §1

[5] = Cell based assay, cytotoxicity in RT4 papilloma cells (selectivity); parameters: species or system human; details: human; RT4 cells (benign), 72 hours
[6] = IV and IP single toxicity tests at 40 mpk, 40 mg/kg

SMILES | Dead subjects [1, 6] | General symptoms (feed intake, drinking water intake) [1, 6] | Weight changes [1, 6] | Percentage (dead subjects), single toxicity evaluation ([1]; Female, IP 40 mg/kg) | Percentage (dead subjects), single toxicity evaluation ([1]; Female, IV 40 mg/kg) | Percentage (dead subjects), single toxicity evaluation ([1]; Male, IP 40 mg/kg) | Percentage (dead subjects), single toxicity evaluation ([1]; Male, IV 40 mg/kg) | Changes (%) in heart rate (zebrafish; mean) [%] | Lethality (zebrafish) | IC50 [2] [µM] | IC50 [3] [µM] | IC50 [4] [µM] | IC50 at 72 h [5] [µM]
CC(=O)c1c([S+]([O-])Cc2ccccc2)nc2c(Br)ccc(Cl)c2c1O (stereo not shown) [Compound 4] | No dead subjects were observed | Feeding and drinking water intakes were good, and no other abnormal symptoms were observed | no significant weight changes; also recorded: a weight gain was observed, but weight gain was slightly reduced in some subjects | 0 (0/2) | 0 (0/2) | 0 (0/2) | 0 (0/2) | 88.5 | 1/10 |  |  |  | 
CC(=O)c1c([S+]([O-])Cc2ccc(-n3cccn3)nc2)[nH]c2c(Br)ccc(Cl)c2c1=O (stereo not shown) [Compound 99, 2-(((6-(1H-pyrazol-1-yl)pyridin-3-yl)methyl)sulfinyl)-3-acetyl-8-bromo-5-chloroquinolin-4(1H)-one] |  |  |  |  |  |  |  |  |  | 0.77 | 1.12 | 0.47 | > 10
